# Measurements as given in US7973147B2, “K04-0144 substance and a process for production thereof” (The Kitasato Institute, priority 2006, dated 2011).
# Columns and labels:
# MRSA 70 = experiment: MIC, agar plate dilution method; type: cell-based, methicillin-resistant Staphylococcus aureus; settings: Staphylococcus aureus, MRSA, 20 h
# Protocol: (§1) Assay of minimum inhibitory concentration (MIC) was performed according to the agar plate dilution method (Method of Japan Society of Chemotherapy, CHEMOTHERAPY 29, 76-79, 1981).
# (§2) Test organisms used were 27 types of microorganisms including clinical isolates of methicillin-resistant Staphylococcus aureus. Each test organism was cultured in Mueller-Hinton broth (2.1% w/v) (DIFCO) at 37° C. for 20 hours, and the cultured cells were suspended to about 10^6 cell counts/ml in the same medium, then was used as the microbial suspension for inoculation. The prepared microbial suspension was smeared by using the microplanter on MHA medium (Mueller-Hinton broth 2.1% (w/v) and agar 1.5%) containing K04-0144A substance, K04-0144B substance or K04-0144C substance, each of which was subjected to two-fold stepwise dilution from 128 μg/ml. After culturing at 37° C. for 20 hours, MIC was determined by macroscopically confirming the growth of microorganisms. Vancomycin, arbekacin and linezolid were used as a comparative control.
# MRSA 92-1191 = experiment: MIC, agar plate dilution method; type: cell-based, methicillin-resistant Staphylococcus aureus; settings: Staphylococcus aureus, MRSA, 20 h
# Protocol: as §1, §2
# MRSA N315 IR94 HR-1 = experiment: MIC, agar plate dilution method; type: cell-based, methicillin-resistant Staphylococcus aureus; settings: Staphylococcus aureus, 20 h
# Protocol: as §1, §2
# MRSA N315 IR94 = experiment: MIC, agar plate dilution method; type: cell-based, methicillin-resistant Staphylococcus aureus; settings: Staphylococcus aureus, 20 h
# Protocol: as §1, §2
# A. calcoaceticus IFO2552 = experiment: MIC, agar plate dilution method; type: cell-based; settings: Acinetobacter calcoaceticus, IFO2552, 20 h
# Protocol: as §1, §2
# C. freundii ATCC8090 = experiment: MIC, agar plate dilution method; type: cell-based; settings: Citrobacter freundii, ATCC8090, 20 h
# Protocol: as §1, §2
# E. aerogenes NCTC10006 = experiment: MIC, agar plate dilution method; type: cell-based; settings: Klebsiella aerogenes, NCTC10006, 20 h
# Protocol: as §1, §2
# E. cloacae IFO13535 = experiment: MIC, agar plate dilution method; type: cell-based; settings: Enterobacter cloacae, IFO13535, 20 h
# Protocol: as §1, §2
# E. coli NIHJ JC-2 = experiment: MIC, agar plate dilution method; type: cell-based; settings: Escherichia coli, NIHJJC2, 20 h
# Protocol: as §1, §2
# [1] = test system: E. facecalis NTCT12201(VanA); experiment: MIC, agar plate dilution method; type: cell-based; settings: 20 h
# Protocol: as §1, §2
# E. faecalis ATCC21212 = experiment: MIC, agar plate dilution method; type: cell-based; settings: Enterococcus faecalis, ATCC21212, 20 h
# Protocol: as §1, §2
# [2] = test system: E. faecium NTCT12203(VanA); experiment: MIC, agar plate dilution method; type: cell-based; settings: Enterococcus faecium, 20 h
# Protocol: as §1, §2
# K. pneumoniae NCTN9632 = experiment: MIC, agar plate dilution method; type: cell-based; settings: Klebsiella pneumoniae, NCTN9632, 20 h
# Protocol: as §1, §2
# M. luteus ATCC9341 = experiment: MIC, agar plate dilution method; type: cell-based; settings: Micrococcus luteus, ATCC9341, 20 h
# Protocol: as §1, §2
# M. morganii IID Kono = experiment: MIC, agar plate dilution method; type: cell-based; settings: Morganella morganii, 20 h
# Protocol: as §1, §2
# P. aeruginosa 46001 = experiment: MIC, agar plate dilution method; type: cell-based; settings: Pseudomonas aeruginosa, 46001, 20 h
# Protocol: as §1, §2
# P. aeruginosa E-2 = experiment: MIC, agar plate dilution method; type: cell-based; settings: Pseudomonas aeruginosa, E2, 20 h
# Protocol: as §1, §2
# P. mirabilis IFO3849 = experiment: MIC, agar plate dilution method; type: cell-based; settings: Proteus mirabilis, IFO3849, 20 h
# Protocol: as §1, §2
# P. vulgaris OX-19 = experiment: MIC, agar plate dilution method; type: cell-based; settings: Proteus vulgaris, OX19, 20 h
# Protocol: as §1, §2
# S. aureus 8325(pEP2104) = experiment: MIC, agar plate dilution method; type: cell-based; settings: Staphylococcus aureus, 20 h
# Protocol: as §1, §2
# S. aureus 8325(pMS97) = experiment: MIC, agar plate dilution method; type: cell-based; settings: Staphylococcus aureus, 20 h
# Protocol: as §1, §2
# S. aureus FDA209P = experiment: MIC, agar plate dilution method; type: cell-based; settings: Staphylococcus aureus, FDA209P, 20 h
# Protocol: as §1, §2
# S. aureus ISP217 = experiment: MIC, agar plate dilution method; type: cell-based; settings: Staphylococcus aureus, ISP217, 20 h
# Protocol: as §1, §2
# S. aureus ISP447 = experiment: MIC, agar plate dilution method; type: cell-based; settings: Staphylococcus aureus, ISP447, 20 h
# Protocol: as §1, §2
# S. aureus Smith = experiment: MIC, agar plate dilution method; type: cell-based; settings: Staphylococcus aureus, 20 h
# Protocol: as §1, §2
# S. epidermidis IFO12648 = experiment: MIC, agar plate dilution method; type: cell-based; settings: Staphylococcus epidermidis, IFO12648, 20 h
# Protocol: as §1, §2
# S. marcescens IFO12648 = experiment: MIC, agar plate dilution method; type: cell-based; settings: Serratia marcescens, IFO12648, 20 h
# Protocol: as §1, §2
# [3] = test system: clinical isolate of MRSA (K24 strain); experiment: MRSA infectious model using silkworms; type: in vivo, silkworm; settings: 25 mg/kg; 72 hours after the inoculation
# Protocol: As an alternative method for in vivo MRSA infection model using animals, the infection system using silkworms has been reported (Kaito et al, Microbial Pathogenesis, 32: 183-190, 2002). Effect of K04-0144A substance was measured according to this method.
# Test organism used was the clinical isolate of MRSA (K24 strain). The MRSA was cultured statically using LB-10 medium (DIFCO) at 37° C. for 18 hours, and a 50 μl of the cultured strain was inoculated into the hemolymph of silkworm, 5 instar, 2nd day, (about 2 g, Ehime sansyu eggs Co., Japan). K04-0144A substance was prepared to a solution of 1 mg/ml, and 50 μl of the solution were administered by using syringe to the dorsal vessel of 5 silkworms infected with MRSA (25 mg/kg). Effect of the K04-0144A substance was evaluated by comparing the survival rate between a group with administering the sample and a group without administering the sample during the raising period of 72 hours after the inoculation. […] Further, all silkworms administered with 50 μl of MRSA bacterial suspension died within 72 hours after the inoculation.
# [4] = test system: MRSA (Clinical isolate, the Kitasato Hospital, Japan); experiment: Enhancing action of K04-0144D substance on antibiotic activities, broth microdilution method; type: cell-based, methicillin-resistant Staphylococcus aureus
smiles,measurement,setting,value
"CN[C@H](CC(C)C)C(=O)N[C@H]1C(=O)N[C@@H](CC(N)=O)C(=O)N[C@H]2C(=O)N[C@H]3C(=O)N[C@H](C(=O)N[C@H](C(=O)O)c4cc(O)cc(O)c4-c4cc3ccc4O)[C@H](O)c3ccc(c(Cl)c3)Oc3cc2cc(c3O[C@@H]2O[C@H](CO)[C@@H](O)[C@H](O)[C@H]2O[C@H]2C[C@](C)(N)[C@H](O)[C@H](C)O2)Oc2ccc(cc2Cl)[C@H]1O [vancomycin, reference compound]",MIC,MRSA 70,0.5 µg/mL
same,MIC,MRSA 92-1191,1 µg/mL
same,MIC,MRSA N315 IR94 HR-1,0.5 µg/mL
same,MIC,MRSA N315 IR94,0.5 µg/mL
same,MIC,A. calcoaceticus IFO2552,> 32 µg/mL
same,MIC,C. freundii ATCC8090,> 32 µg/mL
same,MIC,E. aerogenes NCTC10006,> 32 µg/mL
same,MIC,E. cloacae IFO13535,> 32 µg/mL
same,MIC,E. coli NIHJ JC-2,> 32 µg/mL
same,MIC,[1],> 32 µg/mL
same,MIC,E. faecalis ATCC21212,4 µg/mL
same,MIC,[2],> 32 µg/mL
same,MIC,K. pneumoniae NCTN9632,> 32 µg/mL
same,MIC,M. luteus ATCC9341,1 µg/mL
same,MIC,M. morganii IID Kono,> 32 µg/mL
same,MIC,P. aeruginosa 46001,> 32 µg/mL
same,MIC,P. aeruginosa E-2,> 32 µg/mL
same,MIC,P. mirabilis IFO3849,> 32 µg/mL
same,MIC,P. vulgaris OX-19,> 32 µg/mL
same,MIC,S. aureus 8325(pEP2104),2 µg/mL
same,MIC,S. aureus 8325(pMS97),1 µg/mL
same,MIC,S. aureus FDA209P,1 µg/mL
same,MIC,S. aureus ISP217,1 µg/mL
same,MIC,S. aureus ISP447,1 µg/mL
same,MIC,S. aureus Smith,1 µg/mL
same,MIC,S. epidermidis IFO12648,1 µg/mL
same,MIC,S. marcescens IFO12648,> 32 µg/mL
same,survival of silkworms infected with MRSA,[3],survived after 72 hours of the inoculation
same,enhancing action of K04-0144D substance on the antibiotic's activity,[4]; K04-0144D substance 16 μg/ml,no enhancing action
same,Ratio (−/+K04-0144D),[4]; MIC alone / MIC with K04-0144D substance 16 μg/ml,1
same,MIC,"[4]; Staphylococcus aureus, MRSA, read-out: Minimum Inhibitory Concentration (−)",1 µg/mL
